The results in this text go back to patent publication US20230365564A1, “COCRYSTALS OF AN ADENOSINE A2B RECEPTOR ANTAGONIST” (Teon Therapeutics, Inc., priority 2020, published 2023).

The structures appear in SMILES notation.

Data set [1] is described as follows: Kinetic solubility (solubility-time profile) in biologically relevant fluids. The settings on record: for solubility compared with the free form: several biologically relevant media; for solubility-time profile: 0.5 h to 24 h; for solubility: 0.5 h, 2 h and 24 h. In kind it is physicochemical. As for the experimental part: The solubility-time profile of free form compound (1) and the three cocrystals was evaluated in different aqueous media.
(§1) The kinetic solubility experiments were conducted for the free form and the three cocrystals in the following media: (1) pH 1.0 (0.1N) HCl solution, (2) pH 4.5 (50 mM) acetate buffer, (3) pH 6.8 (50 mM) phosphate buffer, (4) FeSSIF-v1 (Fed state stimulated intestinal fluid version 1) (pH 5.0), (5) FaSSIF-v1 (Fasted state stimulated intestinal fluid version 1) (pH 6.5), (6) SGF (Simulated gastric fluid) (pH 2.0), and (7) FaSSIF-v1/4% Soluplus®, and (8) SGF/4% Soluplus®.
(§2) After combining with the respective media at 37° C., the concentration of the free form or cocrystal and the XRPD was measured at 0.5 hours, 2 hours, and 24 hours.

Data set [2] is described as follows: XRPD form change after standing in aqueous media at 37° C. The class given is physicochemical. The settings on record: for form change (XRPD) after equilibrating in the aqueous media: 24 hours at 37° C. As for the experimental part: X-ray powder diffraction (XRPD) was performed using a Bruker D8 Advance® instrument with a Lynxeye® XE T(1D mode) detector at an open angle of 2.94° in continuous scan mode using a Cu/K-α (λ−1.5418 Å) source. The diffraction patterns were obtain over a scan range from 3° to 40° with 0.02° steps, a step duration of 0.12, and a sample rotation speed of 15 rpm.
as §1, §2
The XRPD patterns shown in FIGS. 19-23 are associated with the aqueous media described in Table 1 and for the free form (Compound (1), FF), the benzenesulfonic acid cocrystal (BSA CC), the para-toluenesulfonic acid cocrystal (pTSA CC), and the fumaric acid cocrystal (FA CC).

Data set [3] can be described thus: Dynamic vapor sorption (DVS) hygroscopicity. The class given is physicochemical. Particulars: for water absorption (DVS): at 95% RH; for water absorption (DVS) / form change after DVS: 25° C.; for form change after DVS: humidity cycle 40-0-95-0-40% RH. The method, then:
Dynamic vapor sorption (DVS) was performed using an Advantage instrument at a total gas flow rate of 200 sccm, an oven temperature of 25° C. with water as the solvent. The humidity cycle was 40-0-95-0-40% RH at step intervals of 10% RH with an equilibration of 0.002 dm/dt (%/min), a maximum, dm/dt stability duration of 60 min, and a maximum dm/dt stage time of 360 min.

Data set [4] is described as follows: Bulk stability (HPLC and XRPD). In kind it is physicochemical. The method, then: The bulk stability of the free form and the cocrystals was determined by exposing the compounds to conditions of temperature, humidity and/or radiation flux and evaluating the compound by HPLC and XRPD.
Data set [5] in a line: Pharmacokinetics following peroral administration to dogs. The settings on record: dog, in vivo. More on the design: species or system beagle dogs. The method, then: The pharmacokinetics of the fumaric acid cocrystal of Example 4 was evaluated following peroral administration to dogs.
Male beagle dogs were separated into two groups of three dogs.
[…] The dosing formulation consisted of 0.40 mg/mL of the fumaric acid cocrystal in 4% Soluplus® in simulated gastric fluid (SGF) at pH 2.0, as a homogeneous opaque suspension of fine particles.
[…] The dosing formulation consisted of 2 mg/mL of the fumaric acid cocrystal in 4% Soluplus® in simulated gastric fluid (SGF) at pH 2.0, as a homogeneous opaque suspension of fine particles.

Data set [6] can be described thus: Aqueous solubility of compound (1). The class given is physicochemical. The settings on record: aqueous medium; substantially independent of pH over a relevant physiological range.
Setting [7] is: 25° C./60% RH in an open vial, 2 weeks.
Where [8] appears, read: 40° C./75% RH in an open vial, 2 weeks.
Setting [9] is: 60° C. in a closed vial, 2 weeks.
[10] abbreviates: po, 2 mg/kg peroral, fed male beagle dogs, 4% Soluplus in SGF pH 2.0.
The mark [11] stands for this setting: po, 10 mg/kg peroral, fed male beagle dogs, 4% Soluplus in SGF pH 2.0.
Where [12] appears, read: pH 1.0 HCl, pH 4.5 acetate, pH 6.8 phosphate, FeSSIF-v1, FaSSIF-v1.
[13] abbreviates: SGF, FaSSIF-v1/4% Soluplus and SGF/4% Soluplus.
Setting [14] is: above 80% RH at 25° C. (then becomes).
Setting [15] is: oral, 5 mg/kg, 0.5% methylcellulose.

The AUC(0-inf) is the area under the concentration-time curve extrapolated to infinity. Read a high AUC(0-inf) as high exposure. Usually Cmax stands for the maximum level reached in the sampled fluid or tissue. The Tmax is the time from dosing to the highest level. The half-life is the time needed for the level to fall by half in the phase considered. A high value points to slow loss. Take `CCCn1c(=O)c2[nH]c(-c3cnn(Cc4cccc(C(F)(F)F)c4)c3)nc2n(CC)c1=O.O=C(O)/C=C/C(=O)O` [fumaric acid cocrystal, 3-ethyl-1-propyl-8-(1-(3-(trifluoromethyl)benzyl)-1H-pyrazol-4-yl)-3,7-dihydro-1H-purine-2,6-dione and fumaric acid]: in data set [1], the “solubility compared with the free form” value was “higher solubility than the free form”. For the same molecule, the “form change (XRPD) after equilibrating in the aqueous media” value (from here on “form change (XRPD) after equilibrating”) was “only partially dissociated to the free form” in data set [2] (FaSSIF-v1), “only partially dissociated to the free form” in data set [2] (FeSSIF-v1), “did not show any form change” in data set [2] (pH 1.0 HCl solution) and “only partially dissociated to the free form” in data set [2] (pH 4.5 acetate buffer). Also, the “form change after solubility study” value in data set [2] (FaSSIF-v1/4% Soluplus) was “converted to a mixture of the cocrystal and amorphous state (free form)”; in data set [2] (SGF), “dissociated to free form”; in data set [2] (SGF/4% Soluplus) it was “converted to a mixture of the cocrystal and amorphous state (free form)”. Also, the water adsorption in data set [3] (25° C./80% RH) is reported as 1.7 wt %; in data set [3] (25° C./95% RH) it was 4.0 wt %. For the same molecule, the “hygroscopicity (DVS)” value in data set [3] (above 90% RH at 25° C. (then becomes)) is on record as “hygroscopic”; in data set [3] (below 90% RH at 25° C.), “slightly hygroscopic”. The “water absorption (DVS)” value in data set [3] is on record as 4%. Further, the “form change after DVS” value in data set [3] is “No form change”. The bulk stability entry in data set [4] (1.2 million lux-hrs), in data set [4] (setting [7]), in data set [4] (setting [8]) and in data set [4] (setting [9]) was “did not exhibit any significant degradation” throughout. Moreover, the AUC(0-inf) was determined as 2220 ng·h/mL in data set [5] (setting [10]) and 21100 ng·h/mL in data set [5] (setting [11]). The values for the Cmax in data set [5] (setting [10]) and in data set [5] (setting [11]) were 148 ng/mL and 976 ng/mL, respectively. The Tmax was 4 h in data set [5] (setting [10]) and 10.7 h in data set [5] (setting [11]). For the same molecule, the half-life was 14.8 h in data set [5] (setting [10]) and 6.5 h in data set [5] (setting [11]).
`CCCn1c(=O)c2[nH]c(-c3cnn(Cc4cccc(C(F)(F)F)c4)c3)nc2n(CC)c1=O.Cc1ccc(S(=O)(=O)O)cc1` [para-toluenesulfonic acid cocrystal, 3-ethyl-1-propyl-8-(1-(3-(trifluoromethyl)benzyl)-1H-pyrazol-4-yl)-3,7-dihydro-1H-purine-2,6-dione and para-toluenesulfonic acid]: the solubility-time profile result in data set [1] (FaSSIF-v1/4% Soluplus, 37° C.) is “first increased and then decreased”; in data set [1] (SGF/4% Soluplus, 37° C.), “first increased and then decreased”. Moreover, the “solubility compared with the free form” value in data set [1] was “higher solubility than the free form”. Moreover, in data set [2] (setting [12]), the “form change (XRPD) after equilibrating” value is reported as “completely dissociated to the free form”. Also, the “form change after solubility study” value in data set [2] (setting [13]) was “dissociated to free form”. Besides, the water adsorption in data set [3] (25° C./80% RH) and in data set [3] (25° C./95% RH) was 1.1 wt % in each case. The “hygroscopicity (DVS)” value is recorded as “slightly hygroscopic” in data set [3] (setting [14]) and “only slightly hygroscopic” in data set [3] (below 80% RH at 25° C.). In addition, in data set [3], the “water absorption (DVS)” value was determined as 11%. Also, in data set [3], the “form change after DVS” value is “No form change”. Besides, the bulk stability entry in data set [4] (1.2 million lux-hrs), in data set [4] (setting [7]), in data set [4] (setting [8]) and in data set [4] (setting [9]) was “did not exhibit any significant degradation” throughout.
As to `CCCn1c(=O)c2[nH]c(-c3cnn(Cc4cccc(C(F)(F)F)c4)c3)nc2n(CC)c1=O.O=S(=O)(O)c1ccccc1` [benzenesulfonic acid cocrystal, 3-ethyl-1-propyl-8-(1-(3-(trifluoromethyl)benzyl)-1H-pyrazol-4-yl)-3,7-dihydro-1H-purine-2,6-dione and benzenesulfonic acid], the solubility-time profile result in data set [1] (FaSSIF-v1/4% Soluplus, 37° C.) is reported as “increased over time”; in data set [1] (SGF/4% Soluplus, 37° C.), “increased over time”. Besides, the “solubility compared with the free form” value in data set [1] is given as “higher solubility than the free form”. In addition, the “form change (XRPD) after equilibrating” value in data set [2] (setting [12]) is listed as “completely dissociated to the free form”. In addition, in data set [2] (setting [13]), the “form change after solubility study” value is recorded as “dissociated to free form”. Further, the water adsorption in data set [3] (25° C./80% RH) came out at 2.2 wt %; in data set [3] (25° C./95% RH) it was 65 wt %. In addition, the “hygroscopicity (DVS)” value in data set [3] (setting [14]) is recorded as “highly hygroscopic”; in data set [3] (below 80% RH at 25° C.), “only slightly hygroscopic”. The “water absorption (DVS)” value in data set [3] is 65%. In addition, the “form change after DVS” value in data set [3] was “No form change”. Further, the bulk stability result is on record as “stable” in data set [4] (1.2 million lux-hrs), “stable” in data set [4] (setting [7]), “began to show some disassociation” in data set [4] (setting [8]) and “stable” in data set [4] (setting [9]).
Usually solubility stands for the dissolved amount per volume that the medium holds. A higher solubility goes with much dissolved substance. Take `CCCn1c(=O)c2[nH]c(-c3cnn(Cc4cccc(C(F)(F)F)c4)c3)nc2n(CC)c1=O` [Compound (1), 3-Ethyl-1-propyl-8-(1-(3-(trifluoromethyl)benzyl)-1H-pyrazol-4-yl)-3,7-dihydro-1H-purine-2,6-dione]: the solubility was less than 1 µg/mL in data set [6]; “below the level of quantification (LOQ)” in data set [1] (FaSSIF-v1, 37° C.); “below the level of quantification (LOQ)” in data set [1] (FeSSIF-v1, 37° C.); “below the level of quantification (LOQ)” in data set [1] (pH 1.0 HCl solution, 37° C.); “below the level of quantification (LOQ)” in data set [1] (pH 4.5 acetate buffer, 37° C.); “below the level of quantification (LOQ)” in data set [1] (pH 6.8 phosphate buffer, 37° C.). Further, the solubility-time profile entry in data set [1] (FaSSIF-v1/4% Soluplus, 37° C.) was “increased over time”; in data set [1] (SGF, 37° C.) it was “maintained in the same magnitude”; in data set [1] (SGF/4% Soluplus, 37° C.) it was “increased over time”. Further, the “form change (XRPD) after equilibrating” value in data set [2] (setting [12]) was “did not show a change in form”. The “form change after solubility study” value in data set [2] (setting [13]) was “no form change”. Further, the bulk stability entry in data set [4] (1.2 million lux-hrs), in data set [4] (setting [7]), in data set [4] (setting [8]) and in data set [4] (setting [9]) was “did not exhibit any significant degradation” each time. The concentration in data set [5] (setting [15]) peaked (Cmax) at 81 ng/mL. Besides, in data set [5] (setting [15]), the Tmax was determined as 2 h. The half-life in data set [5] (setting [15]) was 63 h. Also, in data set [5] (oral, 5 mg/kg, 0.5% methylcellulose, read-out: AUC0-24), the AUC(0-t) worked out at 796 ng·h/mL.
